For 13 molecules, IC50 results are on record in patent publication US12172995B2, “Substituted indole and indazole compounds” (BRISTOL-MYERS SQUIBB COMPANY, priority 2018, dated 2024).

Common to all, as to assay type: cell-based
One experiment deals with T1, human TLR9 (Homo sapiens, UniProt Q9NR96).
T1 construct: host or cells: HEK-Blue cells
T1 sequence (Q9NR96 26-1032): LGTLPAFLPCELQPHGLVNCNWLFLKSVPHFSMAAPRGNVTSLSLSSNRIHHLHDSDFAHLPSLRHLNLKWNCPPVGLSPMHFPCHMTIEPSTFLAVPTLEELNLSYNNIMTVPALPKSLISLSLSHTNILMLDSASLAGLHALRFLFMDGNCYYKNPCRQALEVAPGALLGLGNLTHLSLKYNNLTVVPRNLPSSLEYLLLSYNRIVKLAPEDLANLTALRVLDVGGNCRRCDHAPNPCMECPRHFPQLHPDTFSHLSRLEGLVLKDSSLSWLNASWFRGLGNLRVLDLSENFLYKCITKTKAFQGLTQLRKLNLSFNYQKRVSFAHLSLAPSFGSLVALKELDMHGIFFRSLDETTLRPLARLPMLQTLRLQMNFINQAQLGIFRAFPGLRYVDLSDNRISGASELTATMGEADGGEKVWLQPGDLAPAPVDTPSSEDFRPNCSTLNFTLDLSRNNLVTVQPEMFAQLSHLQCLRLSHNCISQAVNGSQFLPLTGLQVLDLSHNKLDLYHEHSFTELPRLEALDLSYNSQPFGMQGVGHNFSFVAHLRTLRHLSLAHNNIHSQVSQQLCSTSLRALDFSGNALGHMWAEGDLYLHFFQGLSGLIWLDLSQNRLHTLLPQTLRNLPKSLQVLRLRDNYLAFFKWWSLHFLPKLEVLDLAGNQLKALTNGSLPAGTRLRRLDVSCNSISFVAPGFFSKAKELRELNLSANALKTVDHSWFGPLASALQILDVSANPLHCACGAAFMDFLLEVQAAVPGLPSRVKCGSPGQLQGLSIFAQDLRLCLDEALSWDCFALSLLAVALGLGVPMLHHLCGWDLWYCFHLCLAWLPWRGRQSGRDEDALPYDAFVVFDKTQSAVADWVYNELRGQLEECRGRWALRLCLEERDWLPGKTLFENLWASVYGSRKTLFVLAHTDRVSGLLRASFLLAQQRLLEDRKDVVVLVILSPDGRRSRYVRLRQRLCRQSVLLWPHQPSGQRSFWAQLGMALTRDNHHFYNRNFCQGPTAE
The experiment can be described thus: TLR9 inhibition reporter assay (HEK-Blue SEAP). As to conditions: HEK-Blue cells overexpressing human TLR9, stimulated with ODN2006 5 nM, 22 hour incubation. The method in brief: (§1)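 HEK-Blue cells overexpressing the receptor, with an NF-κB/AP-1-driven SEAP reporter, were pre-treated with compound (0.05 nM to 50 μM) for 30 min at room temperature. Stimulation used gardiquimod 7.5 μM (TLR7), R848 15.9 μM (TLR8) or ODN2006 5 nM (TLR9), followed by 22 h at 37 °C.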

The target of a further experiment is T2, human TLR8 (Homo sapiens, UniProt Q9NR97).
T2 construct: host or cells: HEK-Blue cells
T2 sequence (Q9NR97 27-1041): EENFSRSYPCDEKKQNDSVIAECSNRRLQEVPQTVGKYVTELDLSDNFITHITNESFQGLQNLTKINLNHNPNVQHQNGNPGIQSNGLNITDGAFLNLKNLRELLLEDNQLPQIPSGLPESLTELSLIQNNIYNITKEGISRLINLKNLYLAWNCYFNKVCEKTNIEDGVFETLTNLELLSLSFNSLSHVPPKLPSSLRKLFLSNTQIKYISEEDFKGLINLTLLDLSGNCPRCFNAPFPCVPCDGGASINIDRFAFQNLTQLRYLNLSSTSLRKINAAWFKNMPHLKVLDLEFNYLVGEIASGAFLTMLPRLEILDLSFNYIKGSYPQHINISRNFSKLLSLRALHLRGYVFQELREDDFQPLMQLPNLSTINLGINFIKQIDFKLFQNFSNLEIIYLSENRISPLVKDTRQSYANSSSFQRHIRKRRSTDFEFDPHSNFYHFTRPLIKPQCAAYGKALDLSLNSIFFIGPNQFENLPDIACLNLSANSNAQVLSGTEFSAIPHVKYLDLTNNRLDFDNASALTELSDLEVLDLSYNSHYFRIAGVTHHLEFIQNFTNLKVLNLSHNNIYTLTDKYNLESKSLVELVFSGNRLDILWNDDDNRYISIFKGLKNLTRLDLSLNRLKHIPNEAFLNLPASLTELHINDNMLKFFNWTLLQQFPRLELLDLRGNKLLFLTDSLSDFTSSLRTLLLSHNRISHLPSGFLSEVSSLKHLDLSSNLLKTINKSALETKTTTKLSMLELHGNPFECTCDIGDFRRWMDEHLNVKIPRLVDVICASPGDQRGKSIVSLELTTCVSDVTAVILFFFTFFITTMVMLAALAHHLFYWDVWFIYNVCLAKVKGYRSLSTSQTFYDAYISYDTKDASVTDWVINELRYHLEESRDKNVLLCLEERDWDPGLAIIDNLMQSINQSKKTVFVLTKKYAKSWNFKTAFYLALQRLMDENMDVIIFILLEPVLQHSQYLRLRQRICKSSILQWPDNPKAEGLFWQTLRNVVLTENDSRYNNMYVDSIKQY
The experiment can be described thus: TLR8 inhibition reporter assay (HEK-Blue SEAP). To be noted: HEK-Blue cells overexpressing human TLR8, stimulated with R848 15.9 μM, 22 hour incubation. In a few lines:
as §1

A further experiment concerns the target T3, human TLR7 (Homo sapiens, UniProt Q9NYK1).
T3 construct: host or cells: HEK-Blue cells
T3 sequence (Q9NYK1 27-1049): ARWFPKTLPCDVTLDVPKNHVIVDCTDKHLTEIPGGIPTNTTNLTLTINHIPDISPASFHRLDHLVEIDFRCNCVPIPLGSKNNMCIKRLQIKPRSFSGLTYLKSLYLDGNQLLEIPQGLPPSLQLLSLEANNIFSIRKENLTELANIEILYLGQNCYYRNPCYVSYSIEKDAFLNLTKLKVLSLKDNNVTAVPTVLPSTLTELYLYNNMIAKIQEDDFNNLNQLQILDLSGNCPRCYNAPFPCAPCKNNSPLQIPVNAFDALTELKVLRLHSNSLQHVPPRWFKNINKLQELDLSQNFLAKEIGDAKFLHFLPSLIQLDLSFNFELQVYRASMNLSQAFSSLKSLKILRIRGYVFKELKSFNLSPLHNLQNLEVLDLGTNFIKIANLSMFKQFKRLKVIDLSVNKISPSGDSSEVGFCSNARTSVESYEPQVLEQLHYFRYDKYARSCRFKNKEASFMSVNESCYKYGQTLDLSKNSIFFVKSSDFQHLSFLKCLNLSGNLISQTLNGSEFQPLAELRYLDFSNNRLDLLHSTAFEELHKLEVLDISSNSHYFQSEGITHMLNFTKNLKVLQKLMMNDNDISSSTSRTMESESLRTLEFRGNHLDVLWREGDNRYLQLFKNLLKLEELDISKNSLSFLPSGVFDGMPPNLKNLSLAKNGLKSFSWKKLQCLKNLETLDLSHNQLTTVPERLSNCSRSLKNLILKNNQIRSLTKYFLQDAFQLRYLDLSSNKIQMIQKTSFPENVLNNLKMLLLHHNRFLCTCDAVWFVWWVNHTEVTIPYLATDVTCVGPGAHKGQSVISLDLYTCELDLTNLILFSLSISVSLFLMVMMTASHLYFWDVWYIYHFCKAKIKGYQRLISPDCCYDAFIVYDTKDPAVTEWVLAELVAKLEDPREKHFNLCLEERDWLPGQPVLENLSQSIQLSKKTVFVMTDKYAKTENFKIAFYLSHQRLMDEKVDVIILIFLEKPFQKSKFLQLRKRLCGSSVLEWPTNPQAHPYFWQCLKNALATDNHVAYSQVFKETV
The experiment is described as follows: TLR7 inhibition reporter assay (HEK-Blue SEAP). As to conditions: HEK-Blue cells overexpressing human TLR7, stimulated with gardiquimod 7.5 μM, 22 hour incubation. The method in brief: as §1

SMILES strings stand for the structures. Bounds are passed on as bounds.

Take `Cc1cc(-c2cc(C)c3ncnn3c2)cc2[nH]nc(OC3CCC(NCCS(C)(=O)=O)CC3)c12` (stereo not drawn) [Example 187, 4-((4-methyl-6-(8-methyl-[1,2,4]triazolo[1,5-a]pyridin-6-yl)-1H-indazol-3-yl)oxy)-N-(2-(methylsulfonyl)ethyl)cyclohexan-1-amine]: the concentration for half-maximal inhibition (IC50) at human TLR9 worked out at 1820 nM; on human TLR8, 4.9 nM; against human TLR7 it was 11.3 nM.
Regarding `Cc1cc(-c2cc(C)c3ncnn3c2)cc2[nH]nc(OC3CCC(NCCS(C)(=O)=O)CC3)c12` (stereo not drawn) [Example 188, 4-((4-methyl-6-(8-methyl-[1,2,4]triazolo[1,5-a]pyridin-6-yl)-1H-indazol-3-yl)oxy)-N-(2-(methylsulfonyl)ethyl)cyclohexan-1-amine], the half-inhibitory concentration (IC50) against human TLR9 amounted to 4340 nM; against human TLR8, 2.3 nM; at human TLR7, 4 nM.
Taken in the same sequence, the figures for `Cc1cc(-c2cc(C)c3ncnn3c2)cc2[nH]nc(OC3CCN(Cc4cn(C)nn4)CC3)c12` [Example 193, 8-methyl-6-(4-methyl-3-((1-((1-methyl-1H-1,2,3-triazol-4-yl)methyl)piperidin-4-yl)oxy)-1H-indazol-6-yl)-[1,2,4]triazolo[1,5-a]pyridine] were 3730 nM, 1.6 nM and 13.2 nM.
Take `Cc1cc(-c2cc(C)c3ncnn3c2)cc2[nH]nc(OC3CCN(CC#N)CC3)c12` [Example 194, 2-(4-((4-methyl-6-(8-methyl-[1,2,4]triazolo[1,5-a]pyridin-6-yl)-1H-indazol-3-yl)oxy)piperidin-1-yl)acetonitrile]: the IC50 on human TLR9 was 1660 nM; on human TLR8 it was 1.9 nM; on human TLR7, 7.2 nM.
In the same order, the values of `CCc1cc(-c2cc(C)c3ncnn3c2)cc2[nH]nc(OC3CCNCC3)c12` [Example 195, 6-(4-ethyl-3-(piperidin-4-yloxy)-1H-indazol-6-yl)-8-methyl-[1,2,4]triazolo[1,5-a]pyridine] are 6180 nM, 0.8 nM and 3.7 nM.
For `CCc1cc(-c2cc(C)c3ncnn3c2)cc2[nH]nc(OC3CCN(CC(=O)N(C)C)CC3)c12` [Example 196, 2-(4-((4-ethyl-6-(8-methyl-[1,2,4]triazolo[1,5-a]pyridin-6-yl)-1H-indazol-3-yl)oxy)piperidin-1-yl)-N,N-dimethylacetamide], the half-inhibitory concentration (IC50) at human TLR9 is 5760 nM; against human TLR8 it was 1 nM; against human TLR7 it was 4.9 nM.
With `COc1cc(-c2ccc3c(C(=O)NC4CCNCC4)c[nH]c3c2)cn2ncnc12` [Example 197, 6-(8-methoxy-[1,2,4]triazolo[1,5-a]pyridin-6-yl)-N-(piperidin-4-yl)-1H-indole-3-carboxamide], the concentration for half-maximal inhibition (IC50) was 28200 nM on human TLR9, 2360 nM against human TLR8 and 319 nM against human TLR7.
In the same order, the values of `Cc1cc(-c2ccc3c(C(=O)NC4CCNCC4)c[nH]c3c2)cn2ncnc12` [Example 198, 6-(8-methyl-[1,2,4]triazolo[1,5-a]pyridin-6-yl)-N-(piperidin-4-yl)-1H-indole-3-carboxamide] are 9210 nM, 590 nM and 493 nM.
Take `Cc1cc(-c2ccc3c(C(=O)NC4CCNCC4)n[nH]c3c2)cn2ncnc12` [Example 199, 6-(8-methyl-[1,2,4]triazolo[1,5-a]pyridin-6-yl)-N-(piperidin-4-yl)-1H-indazole-3-carboxamide]: the IC50 against human TLR9 stood at 4370 nM; at human TLR8, 218 nM; at human TLR7 it was 226 nM.
Taken in the same sequence, the figures for `Cc1cc(-c2ccc3c(NC4CCNCC4)n[nH]c3c2)cn2ncnc12` [Example 200, 6-(8-methyl-[1,2,4]triazolo[1,5-a]pyridin-6-yl)-N-(piperidin-4-yl)-1H-indazol-3-amine] were 1890 nM, 149 nM and 289 nM.
Regarding `Cc1cc2c(N)n[nH]c2cc1-c1cc(C)c2ncnn2c1` [Example 201, 5-methyl-6-(8-methyl-[1,2,4]triazolo[1,5-a]pyridin-6-yl)-1H-indazol-3-amine], the results for the concentration for half-maximal inhibition (IC50) at human TLR9, against human TLR8 and against human TLR7 were at least 50000 nM, 55.7 nM and 857 nM, respectively.
Regarding `Cc1cc2c(NC(=O)C3CCNCC3)n[nH]c2cc1-c1cc(C)c2ncnn2c1` [Example 202, N-(5-methyl-6-(8-methyl-[1,2,4]triazolo[1,5-a]pyridin-6-yl)-1H-indazol-3-yl)piperidine-4-carboxamide], the values for the half-inhibitory concentration (IC50) on human TLR9, at human TLR8 and against human TLR7 were 9920 nM, 15.3 nM and 266 nM, respectively.
In the same order, the values of `Cc1cc2c(NCCN3CCCC3)n[nH]c2cc1-c1cc(C)c2ncnn2c1` [Example 204, 5-methyl-6-(8-methyl-[1,2,4]triazolo[1,5-a]pyridin-6-yl)-N-(2-(pyrrolidin-1-yl)ethyl)-1H-indazol-3-amine] are 2530 nM, 1.9 nM and 85.9 nM.
